Values joined by “and” are separate entries in the source; they are usually repeats but may differ in a detail not shown here. Identical values can stand only once. Toxic doses and inconclusive results are not listed. How the source made its calls: active means survival T/C of 150% or more; inactive means T/C below 125% in these data.
Test system: P388 leukemia ip, CD2F1 mice, survival T/C
Assay: NCI In Vivo Anticancer Drug Screen. Data for tumor model P388 Leukemia (intraperitoneal) in CD2F1 (CDF1) mice
Conditions: endpoint: median survival time, higher = longer survival
Method in brief: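 Mice carrying the transplanted tumor received test compound or vehicle. Survival was recorded in each group, and the value is the treated-group measurement divided by that of the vehicle-treated control group.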

[1] = dose: 60.0 mg/kg/injection, schedule: Q01DX005 (ip), vehicle: saline with Tween-80
[2] = dose: 120.0 mg/kg/injection, schedule: Q01DX005 (ip), vehicle: saline with Tween-80
[3] = dose: 240.0 mg/kg/injection, schedule: Q01DX005 (ip), vehicle: saline with Tween-80
[4] = dose: 50.0 mg/kg/injection, schedule: Q01DX009 (ip), vehicle: saline with Tween-80
[5] = dose: 100.0 mg/kg/injection, schedule: Q01DX009 (ip), vehicle: saline with Tween-80
[6] = dose: 100.0 mg/kg/injection, schedule: Q01DX001 (ip), vehicle: Klucel (hydroxypropylcellulose) (HPC)
[7] = dose: 200.0 mg/kg/injection, schedule: Q01DX001 (ip), vehicle: Klucel (hydroxypropylcellulose) (HPC)
[8] = dose: 400.0 mg/kg/injection, schedule: Q01DX001 (ip), vehicle: Klucel (hydroxypropylcellulose) (HPC)
[9] = dose: 50.0 mg/kg/injection, schedule: Q01DX005 (ip), vehicle: distilled water + alcohol
[10] = dose: 100.0 mg/kg/injection, schedule: Q01DX005 (ip), vehicle: distilled water + alcohol
[11] = dose: 50.0 mg/kg/injection, schedule: Q01DX005 (ip), vehicle: saline with Tween-80

Measured: T/C

CCOC(=O)C1CC(=O)SC1=O (stereo unspecified)
inactive: dose: 25.0 mg/kg/injection, schedule: Q04DX002 (ip), vehicle: saline with Tween-80 101 % of control | dose: 50.0 mg/kg/injection, schedule: Q04DX002 (ip), vehicle: saline with Tween-80 100 % of control | dose: 100.0 mg/kg/injection, schedule: Q04DX002 (ip), vehicle: saline with Tween-80 99 % of control

COc1ccc2c(c1)CCCC(Br)C2=O (stereo unspecified)
inactive: dose: 25.0 mg/kg/injection, schedule: Q01DX009 (ip), vehicle: distilled water + alcohol 107 % of control | dose: 50.0 mg/kg/injection, schedule: Q01DX009 (ip), vehicle: distilled water + alcohol 105 % of control | dose: 100.0 mg/kg/injection, schedule: Q01DX009 (ip), vehicle: distilled water + alcohol 120 % of control | dose: 200.0 mg/kg/injection, schedule: Q01DX009 (ip), vehicle: distilled water + alcohol 122 % of control

O=C1OC2C3COC(=O)c4cc(O)c(O)c(O)c4-c4c(cc(O)c(O)c4O)C(=O)OC2C(OC(=O)c2cc(O)c(O)c4c2[C@@H]2C1=CC(=O)[C@](O)(O4)C2(O)O)C(OC(=O)c1cc(O)c(O)c(O)c1)O3 (stereo partly specified)
inactive: dose: 6.25 mg/kg/injection, schedule: Q01DX005 (ip), vehicle: DMSO 106 % of control | dose: 12.5 mg/kg/injection, schedule: Q01DX005 (ip), vehicle: DMSO 106 % of control | dose: 25.0 mg/kg/injection, schedule: Q01DX005 (ip), vehicle: DMSO 115 % of control

c1ccc(-c2nc3n(n2)CCC(c2ccccc2)S3)cc1 (stereo unspecified)
inactive: [1] 92 % of control | [2] 89 % of control | [3] 87 % of control

CCOC(=O)C1=C(c2ccccc2)SC(c2ccccc2)N(C(C)C)C1=O (stereo unspecified)
inactive: dose: 25.0 mg/kg/injection, schedule: Q01DX009 (ip), vehicle: saline with Tween-80 106 % of control | [4] 107 % of control | [5] 100 % of control

O=Cc1c(Br)n(-c2ccccc2)c2ccccc12
inactive: [6] 102 % of control | [7] 100 % of control | [8] 100 % of control

CNC(=S)N/N=C/c1ccccn1
inactive: dose: 25.0 mg/kg/injection, schedule: Q01DX009 (ip), vehicle: saline 117 % of control | dose: 50.0 mg/kg/injection, schedule: Q01DX009 (ip), vehicle: saline 116 % of control | dose: 100.0 mg/kg/injection, schedule: Q01DX009 (ip), vehicle: saline 101 % of control | dose: 200.0 mg/kg/injection, schedule: Q01DX009 (ip), vehicle: saline 97 % of control

C[S+]1C2(C3CC4CC(C3)CC2C4)C12C1CC3CC(C1)CC2C3 (stereo unspecified)
inactive: [9] 104 % of control | [10] 109 % of control

CCCCOc1cc2c(cc1C(C)c1ccc(OC)cc1)OCO2 (stereo unspecified)
inactive: [9] 96 % of control | [10] 95 % of control | dose: 200.0 mg/kg/injection, schedule: Q01DX005 (ip), vehicle: distilled water + alcohol 96 % of control

COc1ccc(CSCc2c(CSCc3ccc(OC)c(OC)c3)c(CSCc3ccc(OC)c(OC)c3)c(CSCc3ccc(OC)c(OC)c3)c(CSCc3ccc(OC)c(OC)c3)c2CSCc2ccc(OC)c(OC)c2)cc1OC
inactive: dose: 100.0 mg/kg/injection, schedule: Q04DX003 (ip), vehicle: saline with Tween-80 96 % of control | dose: 200.0 mg/kg/injection, schedule: Q04DX003 (ip), vehicle: saline with Tween-80 90 % of control | dose: 400.0 mg/kg/injection, schedule: Q04DX003 (ip), vehicle: saline with Tween-80 102 % of control

CSC(=N\N=C\c1ccc(N(C)C)cc1)/N=C/N(C)C
inactive: [1] 100 % of control | [2] 103 % of control | [3] 103 % of control

CC(=O)OC1=C2C(C)(C)OC3CC(=O)OCC23C2CCC3(C)C(c4ccoc4)OC(=O)C4OC43C2(C)C1=O (stereo unspecified)
inactive: dose: 0.5 mg/kg/injection, schedule: Q01DX009 (ip), vehicle: saline + alcohol 113 % of control | dose: 1.0 mg/kg/injection, schedule: Q01DX009 (ip), vehicle: saline + alcohol 110 % of control | dose: 2.0 mg/kg/injection, schedule: Q01DX009 (ip), vehicle: saline + alcohol 107 % of control | dose: 4.0 mg/kg/injection, schedule: Q01DX009 (ip), vehicle: saline + alcohol 101 % of control

CC1(C)OC2(C)CCC1C1C2N1C(=O)Nc1ccccc1 (stereo unspecified)
inactive: [11] 101 % of control | dose: 100.0 mg/kg/injection, schedule: Q01DX005 (ip), vehicle: saline with Tween-80 106 % of control | dose: 200.0 mg/kg/injection, schedule: Q01DX005 (ip), vehicle: saline with Tween-80 101 % of control

Cc1cc(O)c(C=Nc2ccc3ccccc3c2)c2c1C(=O)Oc1c(CO)c(O)c(C(=O)O)c(C=Nc3ccc4ccccc4c3)c1O2
inactive: dose: 12.5 mg/kg/injection, schedule: Q01DX005 (ip), vehicle: Klucel (hydroxypropylcellulose) (HPC) 86 % of control and 90 % of control | dose: 25.0 mg/kg/injection, schedule: Q01DX005 (ip), vehicle: Klucel (hydroxypropylcellulose) (HPC) 104 % of control | dose: 100.0 mg/kg/injection, schedule: Q01DX005 (ip), vehicle: Klucel (hydroxypropylcellulose) (HPC) 88 % of control and 92 % of control

CC1CCCN(CC(O)CN2C[C@@H](C)N(CC(O)CN3CCCC(C)C3)[C@H](C)C2)C1 (stereo partly specified)
inactive: dose: 12.5 mg/kg/injection, schedule: Q01DX005 (ip), vehicle: saline with Tween-80 100 % of control | dose: 25.0 mg/kg/injection, schedule: Q01DX005 (ip), vehicle: saline with Tween-80 100 % of control | [11] 100 % of control and 112 % of control

CCCC1(CCC)CCC2C3CCC4CC(O)CCC4(C)C3CCC2(C)N1O (stereo unspecified)
inactive: [6] 92 % of control | [7] 89 % of control | [8] 91 % of control

COC1C(CO)OC(n2cnc3c(=S)nc(N)[nH]c32)C1O (stereo unspecified)
inactive: [5] 122 % of control | dose: 264.0 mg/kg/injection, schedule: Q04DX003 (ip), vehicle: saline with Tween-80 109 % of control

COc1ccc(/C=C/C(=O)C(CN(C)C)CN(C)C)cc1OC
inactive: dose: 0.78 mg/kg/injection, schedule: Q01DX005 (ip), vehicle: Klucel (hydroxypropylcellulose) (HPC) 106 % of control | dose: 1.56 mg/kg/injection, schedule: Q01DX005 (ip), vehicle: Klucel (hydroxypropylcellulose) (HPC) 102 % of control | dose: 3.12 mg/kg/injection, schedule: Q01DX005 (ip), vehicle: Klucel (hydroxypropylcellulose) (HPC) 104 % of control

COc1ccc2ccc(C=O)cc2c1OC
inactive: dose: 25.0 mg/kg/injection, schedule: Q01DX009 (ip), vehicle: other 104 % of control | dose: 50.0 mg/kg/injection, schedule: Q01DX009 (ip), vehicle: other 95 % of control | dose: 100.0 mg/kg/injection, schedule: Q01DX009 (ip), vehicle: other 103 % of control | dose: 200.0 mg/kg/injection, schedule: Q01DX009 (ip), vehicle: other 97 % of control | dose: 400.0 mg/kg/injection, schedule: Q01DX009 (ip), vehicle: other 112 % of control

CCC1(O)CC2C3C(C(=O)OC)=C4Nc5ccccc5C45CCN(C31)C25 (stereo unspecified)
inactive: dose: 1.0 mg/kg/injection, schedule: Q01DX001 (ip), vehicle: water 100 % of control | dose: 2.0 mg/kg/injection, schedule: Q01DX001 (ip), vehicle: water 100 % of control | dose: 4.0 mg/kg/injection, schedule: Q01DX001 (ip), vehicle: water 101 % of control | dose: 8.0 mg/kg/injection, schedule: Q01DX001 (ip), vehicle: water 92 % of control | dose: 16.0 mg/kg/injection, schedule: Q01DX001 (ip), vehicle: water 95 % of control | dose: 32.0 mg/kg/injection, schedule: Q01DX001 (ip), vehicle: water 99 % of control

CC(C)(C)C(=O)CC(Cc1nccc2ccccc12)c1ccccc1 (stereo unspecified)
inactive: [4] 106 % of control | [5] 104 % of control | dose: 200.0 mg/kg/injection, schedule: Q01DX009 (ip), vehicle: saline with Tween-80 103 % of control

CC(=O)C(=Cc1ccc(C=C(C(C)=O)C(C)=O)cc1)C(C)=O
inactive: [1] 114 % of control | [2] 111 % of control

Reference: PubChem BioAssay AID330 (DTP/NCI, 2004)
